From patent US20130310374A1, “Substituted Imidazoquinoline Derivatives” (PIRAMAL ENTERPRISES LIMITED`, priority 2010, published 2013)

Assays:
PC3 = test: Cytotoxicity propidium iodide assay, PC3; format: cell-based, human; conditions: Homo sapiens, PC-3; for IC50: PC3 (prostate), 48 hours treatment, read-out: IC50 Values in μM, C2a
How it was run: (§1)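 Cells were seeded at 3000/well and allowed 18-24 h at 37 °C/5% CO2, then exposed to a compound dilution series for 48 h. After a PBS wash, propidium iodide was added and plates were frozen overnight, thawed and read by fluorescence. Viability was normalised to untreated wells (100%), and IC50 came from the plotted percentages.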

KCL22/SR = test: Cytotoxicity propidium iodide assay, KCL22/SR; format: cell-based; conditions: Homo sapiens, KCL-22; KCL22/SR (CML), 48 hours treatment; read-out: IC50 Values in μM, C6e
Description: (§2) The assay was designed as in the reference, Anticancer Drugs, 2002, 13, 1-8, the disclosure of which is incorporated herein by reference for the teaching of the assay.
(§3) Cells from cell lines (ATCC) as mentioned in the table given below were seeded at a density of 3000 cells/well in a white opaque 96-well plate. Following incubation at 37° C./5% CO2 for a period of 18-24 hours, the cells were treated with various concentrations (stock solution was prepared in DMSO and subsequent dilutions were made in media as per ATCC guidelines) of the compounds of the present invention for a period of 48 hours. At the end of treatment, the culture medium was discarded, the cells were washed with 1×PBS and 200 μL of […] propidium iodide was added to each well. The plates were frozen at 70° C. overnight. For analysis, the plates were warmed to RT, allowed to thaw and were read in PoleStar fluorimeter with the fluorescence setting. The percentage of viable cells in the non-treated set of wells was considered to be 100 and the percentage viability following treatment was calculated accordingly. IC50 values were calculated from graphs plotted using these percentages. IC50 values for certain compounds of present invention are depicted in Table 1 and % Inhibition of certain compounds of present invention are depicted in Table 2.

KCL22 = test: Cytotoxicity propidium iodide assay, KCL22; format: cell-based; conditions: Homo sapiens, KCL-22; KCL22 (CML), 48 hours treatment; read-out: IC50 Values in μM, C6f
Description: as §2
as §3, with “The plates were frozen at 70° C. overnight.” left out

K562 = test: Cytotoxicity propidium iodide assay, K562; format: cell-based; conditions: Homo sapiens; K562 (CML), 48 hours treatment; read-out: IC50 Values in μM, C6a
Description: as §2, §3

A2780 = test: Cytotoxicity propidium iodide assay, A2780; format: cell-based; conditions: Homo sapiens; for IC50: A2780 (ovarian), 48 hours treatment, read-out: IC50 Values in μM, C1a
How it was run: as §1

KU812/SR = test: Cytotoxicity propidium iodide assay, KU812/SR; format: cell-based; conditions: Homo sapiens; KU812/SR (CML), 48 hours treatment; read-out: IC50 Values in μM, C6c
Description: as §2, §3

T315I = test: Cytotoxicity propidium iodide assay, T315I; format: cell-based; conditions: T315I (CML), 48 hours treatment; read-out: IC50 Values in μM, C6b
Description: as §2, §3

LN229 = test: Cytotoxicity propidium iodide assay, LN229; format: cell-based; conditions: Homo sapiens, LN-229; LN229 (glioblastoma), 48 hours treatment; read-out: IC50 Values in μM, C5a
Description: as §2, §3

LN18 = test: Cytotoxicity propidium iodide assay, LN18; format: cell-based; conditions: Homo sapiens, LN-18; LN18 (glioblastoma), 48 hours treatment; read-out: IC50 Values in μM, C5b
Description: as §2, §3

BT 549 = test: Cytotoxicity propidium iodide assay, BT 549; format: cell-based; conditions: Homo sapiens; BT 549 (breast), 48 hours treatment; read-out: IC50 Values in μM, C3c
Description: as §2, §3

U 87 MG = test: Cytotoxicity propidium iodide assay, U 87 MG; format: cell-based; conditions: Homo sapiens; U 87 MG (glioblastoma), 48 hours treatment; read-out: IC50 Values in μM, C5c
Description: as §2
as §3, with “The plates were frozen at 70° C. overnight.” left out

hPBMC [1] = test: MTS toxicity assay in parallel to anti-CD3/anti-CD28 cytokine assay; format: cell-based, human; conditions: anti-CD3/anti-CD28 experiment
Description: (§4) hPBMC stimulation: Peripheral blood was collected from normal healthy volunteers after informed consent. Peripheral blood mononuclear cells (hPBMC) were harvested using Ficoll-Hypaque density gradient centrifugation (1.077 g/mL; Sigma Aldrich). hPBMCs were resuspended in RPMI 1640 culture medium (Gibco BRL, Pasley, UK) containing 10% FCS, 100 U/mL penicillin (Sigma Chemical Co. St Louis, Mo.) and […] streptomycin (Sigma Chemical Co. St Louis, Mo.) at 1.25×10^6 cells/mL of assay medium. 2.5×10^5 hPBMCs were added per well of 96-well plate coated with or without anti-CD3/anti-CD28 mAbs. Simultaneously, 0.025 μM of compounds of the present invention or 0.5% DMSO (vehicle control) were added to appropriate wells. The cells were then incubated for 18 hours at 37° C., 5% CO2 following which supernatants were collected, stored at […] and assayed later for TNF-α, IL-6 and IFN-γ by ELISA (OptiEIA ELISA sets; BD Biosciences). In every experiment, each condition was run in triplicate wells. In all experiments, the toxicity of test compounds was ascertained, in parallel, using the MTS (3-(4,5-dimethylthiazol-2-yl)-5-(3-carboxymethoxyphenyl)-2-(4-sulfonyl)-2H-tetrazolium) assay as described in Am. J. Physiol. Cell Physiol., 2003, 285, C813-C822.

IFN-γ [2] = test: Anti-CD3 mAb and anti-CD28 mAb-induced cytokine production assay, IFN-γ; format: cell-based; conditions: Homo sapiens, hPBMC, anti-CD3/anti-CD28, 18 hours
Description: (§5) Anti-CD3 mAb and Anti-CD28 mAb-Induced Cytokine Production Assay
(§6) Preparation of anti-CD3/anti-CD28 coated plates: 96 well plates were coated with goat anti-mouse IgG, Fc (Millipore) at a concentration of 16.5 μg/mL in coating buffer ([…] NaHCO3, 3.56 g Na2CO3, pH 9.5). Following overnight incubation at 4° C., the plates were washed and then incubated with anti-CD3 (3.5 μg/mL; R&D Systems) and anti-CD28 (35 ng/mL; R&D Systems) cocktail for 3 hours. Subsequently, the plates were washed, and used for hPBMC stimulation.
as §4

hPBMC [3] = test: MTS toxicity assay in parallel to Con-A-induced IFN-γ assay; format: cell-based, human; conditions: Con-A experiment
Description: (§7) Peripheral blood was collected from normal healthy volunteers after informed consent. Peripheral blood mononuclear cells (hPBMC) were harvested using Ficoll-Hypaque density gradient centrifugation (1.077 g/mL; Sigma Aldrich). hPBMCs were resuspended in RPMI 1640 culture medium (Gibco BRL, Pasley, UK) containing 10% FCS, 100 U/mL penicillin (Sigma Chemical Co. St Louis, Mo.) and […] streptomycin (Sigma Chemical Co. St Louis, Mo.) at 1×10^6 cells/mL. 1×10^5 hPBMCs/well were pre-treated with 0.025 μM of compounds of present invention or 0.5% DMSO (vehicle control) for 30 minutes at 37° C. Subsequently, these cells were stimulated with 1 μg/mL concanavalin A (Sigma Chemical Co., St. Louis, Mo.). Following 18 hours of incubation at 37° C., supernatants were collected and stored at −70° C. until assayed for human IFN-γ by ELISA as described by the manufacturer (OptiEIA ELISA sets, BD BioSciences). In every experiment, cyclosporin (1 μM) was used as a positive control for inhibiting induced IFN-γ production. In all experiments, the toxicity of test compounds was ascertained, in parallel, using the MTS (3-(4,5-dimethylthiazol-2-yl)-5-(3-carboxymethoxyphenyl)-2-(4-sulfonyl)-2H-tetrazolium) assay as described in Am. J. Physiol. Cell Physiol., 2003, 285, C813-C822.

IL-6 = test: Anti-CD3 mAb and anti-CD28 mAb-induced cytokine production assay, IL-6; format: cell-based; conditions: Homo sapiens, hPBMC, anti-CD3/anti-CD28, 18 hours
Description: as §5, §6, §4

TNF-α = test: Anti-CD3 mAb and anti-CD28 mAb-induced cytokine production assay, TNF-α; format: cell-based; conditions: Homo sapiens, hPBMC, anti-CD3/anti-CD28, 18 hours
Description: as §5, §6, §4

IFN-γ [4] = test: Con-A-induced IFN-γ production from hPBMC; format: cell-based; conditions: Homo sapiens, concanavalin A 1 μg/mL, 18 hours
Description: Con-A-Induced IFN-γ Production from hPBMC
as §7

PI3K/mTOR pathway = test: Western blot analysis in A2780 ovarian cancer cell line; format: cell-based; conditions: A2780 cells treated for 1 hour; FIG. 1A-1E
Description: Protocol for Western Blot Analysis
A2780 ovarian cancer cell line (ATCC) were grown to approximately 70% confluence in 100-mm tissue culture dishes and then treated for 1 hour with […] compounds of Example 2, 3, 5, 16, 19, 55 and 59. Total protein was extracted using cell lysis buffer (NaCl […], NP40 0.67%, Tris-Cl, pH 7.5, 67 mM) containing protease inhibitors and phosphatase inhibitors (Beta-glycerol phosphate 40 mM, DTT 1 mM, NaF 0.4 mM, Sodium-Orthovanadate 0.4 mM) at 4° C. for 1 hour. Cell lysates were then centrifuged at 2×10^4 g for 10 minutes at 4° C., and the protein concentration of the supernatant was quantified using the Bradford's method (BioRad, USA). For SDS-PAGE, 50 μg protein was loaded in SDS-PAGE, transferred to a polyvinylidene difluoride membrane (Bio-Rad, USA) and blocked with 5 mL buffer [5% skim milk and 0.1% Tween] for 1 hour 30 minutes. Membrane were probed with primary antibody (all primary antibodies were from cell signaling with 1:1000 in TBST solution) of respective protein at 4° C. overnight. Peroxidase-labeled anti-rabbit or anti-mouse antibodies (Santacruze, USA) were used as the secondary antibody. Actin and respective whole protein levels were used as the control for protein loading. Protein antigens were detected using Chemiluminescent Substrate (Thermo scientific, USA) and exposed on Kodak station.

MCF7 = test: Cytotoxicity propidium iodide assay, MCF7; format: cell-based; conditions: Homo sapiens; MCF7 (breast), 48 hours treatment; read-out: IC50 Values in μM, C3d
Description: as §2, §3

BxPC3 = test: Cytotoxicity propidium iodide assay, BxPC3; format: cell-based; conditions: Homo sapiens, BXPC-3; BxPC3 (pancreatic), 48 hours treatment; read-out: IC50 Values in μM, C4c
Description: as §2, §3

AsPC 1 = test: Cytotoxicity propidium iodide assay, AsPC 1; format: cell-based; conditions: Homo sapiens, ASPC1; AsPC 1 (pancreatic), 48 hours treatment; read-out: IC50 Values in μM, C4b
Description: as §2
as §3, with “The plates were frozen at 70° C. overnight.” left out

MDA MB 468 = test: Cytotoxicity propidium iodide assay, MDA MB 468; format: cell-based; conditions: Homo sapiens; MDA MB 468 (breast), 48 hours treatment; read-out: IC50 Values in μM, C3b
Description: as §2, §3

MDA MB 231 = test: Cytotoxicity propidium iodide assay, MDA MB 231; format: cell-based; conditions: Homo sapiens; MDA MB 231 (breast), 48 hours treatment; read-out: IC50 Values in μM, C3a
Description: as §2
as §3, with “The plates were frozen at 70° C. overnight.” left out

## Cn1c(=O)n(-c2ccc(C(C)(C)C#N)nc2)c2c3cc(-c4cccnc4)ccc3ncc21 [Example 1, 2-Methyl-2-(5-(3-methyl-2-oxo-8-(pyridin-3-yl)-2,3-dihydro-1H-imidazo[4,5-c]quinolin-1-yl)pyridin-2-yl)propanenitrile]
PC3
  IC50: 0.22 µM
KCL22/SR
  IC50: 0.62 µM
KCL22
  IC50: 1.18 µM
K562
  IC50: 0.9 µM
A2780
  IC50: 0.4 µM
KU812/SR
  IC50: 0.96 µM
T315I
  IC50: 3.3 µM

## Cn1c(=O)n(-c2ccc(Cl)nc2Cl)c2c3cc(-c4cccnc4)ccc3ncc21 [Example 62, 1-(2,6-Dichloropyridin-3-yl)-3-methyl-8-(pyridin-3-yl)-1H-imidazo[4,5-c]quinolin-2(3H)-one]
PC3; PC3, 1 μM, 48 hours, read-out: % Inhibition at 1 μM, C2a
  inhibition at 1 µM: 28%
KCL22/SR
  IC50: 0.62 µM
LN229
  IC50: 1.03 µM
K562
  IC50: 0.144 µM
LN18
  IC50: 1.08 µM
A2780; A2780, 1 μM, 48 hours, read-out: % Inhibition at 1 μM, C1a
  inhibition at 1 µM: 69%
BT 549
  IC50: 1.5 µM
KU812/SR
  IC50: 0.84 µM
U 87 MG
  IC50: 9.92 µM

## Cn1c(=O)n(-c2ccc(C(F)(F)F)nc2)c2c3cc(-c4ccc(F)nc4F)ccc3ncc21 [Example 57, 8-(2,6-Difluoropyridin-3-yl)-3-methyl-1-(6-(trifluoromethyl)pyridin-3-yl)-1H-imidazo [4,5-c]quinolin-2(3H)-one]
hPBMC [1]
  % Toxicity at 0.025 μM: 14%
IFN-γ [2]
  inhibition at 0.025 µM: 88%
hPBMC [3]
  % Toxicity at 0.025 μM: 14%
IL-6
  inhibition at 0.025 µM: 94%
TNF-α
  inhibition at 0.025 µM: 80%
IFN-γ [4]
  inhibition at 0.025 µM: 88%

## Cn1c(=O)n(-c2ccc(C(F)(F)F)nc2)c2c3cc(-c4cnc(N)c(C(F)(F)F)c4)ccc3ncc21 [Example 55, 8-(6-Amino-5-(trifluoromethyl)pyridin-3-yl)-3-methyl-1-(6-(trifluoromethyl)pyridin-3-yl)-1H-imidazo[4,5-c]quinolin-2(3H)-one]
PC3
  IC50: 1.6 µM
KCL22/SR
  IC50: 0.06 µM
PI3K/mTOR pathway
  Akt, S6 and 4EBP1 phosphorylation (Western blot): inhibit Akt, S6 and 4EBP1 phosphorylation
MCF7
  IC50: 0.06 µM
LN229
  IC50: 0.096 µM
BxPC3
  IC50: 0.027 µM
K562
  IC50: 0.056 µM
AsPC 1
  IC50: 0.04 µM
LN18
  IC50: 0.282 µM
A2780
  IC50: 0.009 µM
BT 549
  IC50: 0.17 µM
KU812/SR
  IC50: 0.23 µM
T315I
  IC50: 0.19 µM
U 87 MG
  IC50: 7.92 µM
MDA MB 468
  IC50: 0.075 µM
MDA MB 231
  IC50: 0.035 µM
